What was measured:
[1] = target: T1, AmPDH (Agaricus meleagris pyranose dehydrogenase, pdh1) (Macropsalliota meleagris, UniProt Q3L245, H128Y); test: steady-state kinetics, ferrocenium assay; type: biochemical; settings: apparent; electron acceptor; 25 mM D-glucose as donor; pH 8.5; 30 °C; read-out: H103Y / K m /
T1 construct: monomeric glycoprotein about 90 kDa, 64 kDa deglycosylated
Excerpt: steady-state kinetics, ferrocenium assay on AmPDH (Agaricus meleagris pyranose dehydrogenase, pdh1)

[2] = target: T1, AmPDH (Agaricus meleagris pyranose dehydrogenase, pdh1); test: UV-vis spectra before and after TCA/acetone precipitation; type: binding; settings: non-covalent, tightly bound; pH 7.5 spectra
[3] = target: T2, AmPDH (Agaricus meleagris pyranose dehydrogenase, pdh1) (Macropsalliota meleagris, UniProt Q3L245); test: as above; type: binding; settings: covalent (to H103); pH 7.5 spectra
T2 construct: monomeric glycoprotein about 90 kDa, 64 kDa deglycosylated
T2 sequence (Q3L245 26-602): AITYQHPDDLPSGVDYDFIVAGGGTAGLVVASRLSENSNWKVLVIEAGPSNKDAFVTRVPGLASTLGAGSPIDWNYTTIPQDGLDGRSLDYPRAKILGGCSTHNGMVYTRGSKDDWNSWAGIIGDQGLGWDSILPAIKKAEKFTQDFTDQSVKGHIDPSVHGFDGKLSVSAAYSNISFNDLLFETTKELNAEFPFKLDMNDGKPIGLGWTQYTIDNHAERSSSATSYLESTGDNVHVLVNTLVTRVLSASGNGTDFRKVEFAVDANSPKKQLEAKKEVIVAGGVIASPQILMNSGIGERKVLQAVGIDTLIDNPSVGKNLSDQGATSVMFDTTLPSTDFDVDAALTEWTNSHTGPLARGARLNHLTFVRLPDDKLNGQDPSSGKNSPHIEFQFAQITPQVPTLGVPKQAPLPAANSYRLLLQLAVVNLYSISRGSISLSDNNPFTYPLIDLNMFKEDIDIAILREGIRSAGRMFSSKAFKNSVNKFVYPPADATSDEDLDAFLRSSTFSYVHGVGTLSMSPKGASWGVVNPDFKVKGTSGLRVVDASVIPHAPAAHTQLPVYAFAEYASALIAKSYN

[4] = target: T1, AmPDH (Agaricus meleagris pyranose dehydrogenase, pdh1); test: steady-state kinetics; type: biochemical; settings: apparent; electron acceptor; 25 mM D-glucose as donor; pH 4; 30 °C; read-out: H103Y / K m /
Excerpt: steady-state kinetics on AmPDH (Agaricus meleagris pyranose dehydrogenase, pdh1)

T1 sequence (Q3L245 26-602 H128Y): as the sequence (Q3L245 26-602) above, with H103Y counted along it

`F[P-](F)(F)(F)(F)F.[Fe+3].c1cc[cH-]c1.c1cc[cH-]c1` [Fc+PF6, ferrocenium hexafluorophosphate] gave a Km [1] of 100 ± 10 µM.
For `Cc1cc2nc3c(=O)[nH]c(=O)nc-3n(C[C@H](O)[C@H](O)[C@H](O)COP(=O)(O)OP(=O)(O)OC[C@H]3O[C@@H](n4cnc5c(N)ncnc54)[C@H](O)[C@@H]3O)c2cc1C` [FAD], the “UV-vis spectra before and after TCA/acetone precipitation” value [2] was “the variant H103Y carries a tightly but non-covalently bound FAD cofactor” and the “UV-vis spectra before and after TCA/acetone precipitation” value [3] was “the wild-type protein did not release the covalently bound FAD”.
In the case of `O=C1C=CC(=O)C=C1` [1,4-BQ, 1,4-benzoquinone], the Km [4] is reported as 3640 ± 470 µM.

From article PMC3948749, “Engineering of Pyranose Dehydrogenase for Increased Oxygen Reactivity” (PLoS ONE, 2014)
